Measurements: patent US20090099195A1 (ASTRAZENECA AB, priority 2007, published 2009)

Columns and labels:
[1] = target: T1, hP2X3 (human Purinergic P2X receptors subtype 3), clone B (Homo sapiens, UniProt P56373); test: hP2X3 FLIPR calcium (Fluo-4) antagonist assay, clone B; conditions: Human P2X3 FLIPR Clone B IC50 (nM), RLE cells expressing hP2X3 clone B (NM_002559); agonist 500 nM α,β-methylene-ATP
T1 sequence (P56373 1-397): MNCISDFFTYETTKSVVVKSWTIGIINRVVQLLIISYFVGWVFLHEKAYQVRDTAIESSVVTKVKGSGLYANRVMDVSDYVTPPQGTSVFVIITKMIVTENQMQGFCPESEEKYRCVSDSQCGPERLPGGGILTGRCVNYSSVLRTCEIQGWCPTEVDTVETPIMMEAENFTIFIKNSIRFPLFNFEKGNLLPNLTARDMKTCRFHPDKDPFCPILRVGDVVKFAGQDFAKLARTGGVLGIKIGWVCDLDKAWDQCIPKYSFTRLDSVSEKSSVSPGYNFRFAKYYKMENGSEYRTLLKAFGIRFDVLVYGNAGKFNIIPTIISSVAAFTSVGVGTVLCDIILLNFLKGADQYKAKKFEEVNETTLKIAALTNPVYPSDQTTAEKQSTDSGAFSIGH

[2] = target: T2, rat P2X2/3 (rat P2X3 co-expressed with rat P2X2) (Rattus norvegicus, UniProt P49653+P49654); test: rat P2X2/3 FLIPR calcium (Fluo-4) antagonist assay; conditions: Rat P2X2/3 FLIPR Mean IC50 (nM), HEK-TREX cells, tetracycline-induced rat P2X3 with constitutive rat P2X2; agonist 500 nM α,β-methylene-ATP
T2 sequence (P49654 1-397): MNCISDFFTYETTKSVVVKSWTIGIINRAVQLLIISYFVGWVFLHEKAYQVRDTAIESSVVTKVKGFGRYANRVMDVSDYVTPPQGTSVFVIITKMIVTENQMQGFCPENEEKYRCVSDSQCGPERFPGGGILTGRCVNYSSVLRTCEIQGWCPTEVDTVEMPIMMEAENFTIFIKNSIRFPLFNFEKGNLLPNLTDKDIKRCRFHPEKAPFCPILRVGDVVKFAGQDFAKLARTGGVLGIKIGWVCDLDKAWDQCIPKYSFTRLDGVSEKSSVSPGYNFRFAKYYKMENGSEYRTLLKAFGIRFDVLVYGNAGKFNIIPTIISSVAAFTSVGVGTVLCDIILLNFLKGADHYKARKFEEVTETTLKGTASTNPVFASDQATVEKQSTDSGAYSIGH
T2 sequence (P49653 1-472): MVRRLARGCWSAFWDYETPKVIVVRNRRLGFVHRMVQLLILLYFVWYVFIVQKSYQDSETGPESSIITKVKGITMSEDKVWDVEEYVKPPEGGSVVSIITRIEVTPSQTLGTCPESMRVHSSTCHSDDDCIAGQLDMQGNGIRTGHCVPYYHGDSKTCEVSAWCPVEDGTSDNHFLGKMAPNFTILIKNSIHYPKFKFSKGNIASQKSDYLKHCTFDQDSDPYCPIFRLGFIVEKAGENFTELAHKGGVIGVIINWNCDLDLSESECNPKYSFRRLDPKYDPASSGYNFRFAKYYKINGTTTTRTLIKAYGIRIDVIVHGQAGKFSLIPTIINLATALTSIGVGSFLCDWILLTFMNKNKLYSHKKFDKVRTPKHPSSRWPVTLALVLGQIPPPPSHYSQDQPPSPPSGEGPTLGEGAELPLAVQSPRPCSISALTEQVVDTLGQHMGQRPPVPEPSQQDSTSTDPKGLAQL
Description: (§1) The assay used a calcium indicator dye (Fluo-4) that emits fluorescence, the intensity of which is related to the concentration of calcium that entered the cell when P2X3 was activated and the channel opened. Activation of hP2X3 or rat P2X3 and rat P2X2/3 (from the coexpression of rat P2X3 and rat P2×2) is elicited the by P2X3 agonist α,β methylene-ATP (Sigma M6517), and the resulting fluorescence is measured with a FLIPR II™ instrument (Molecular Devices). Compounds are tested for their ability to inhibit the agonist-induced fluorescent signal.
(§2) For the rat P2X2/3 HEK-TREX cells, induction of the rat P2X3 expression is used to generate the rat P2X2/3 channels in HEK-TREX cells and performed by addition of 1 μg/mL tetracycline (Invitrogen) 24 h prior to compounds testing to the HEK-TREX expressing the rat P2X2 constitutively. On the day of the experiment, the cells and test compounds are prepared as follows. […] After preparing the compounds, the medium is removed from the cell plates by inversion. A loading solution of 30 μL assay buffer containing 4 μM of the calcium indicator dye FLUO-4 AM (Molecular Probes F14202) is added to each well using a Multidrop (Labsystems). […] The incubation is terminated by washing the cells four times in assay buffer using a Skatron Embla (Molecular Devices), and 25 μL of assay buffer was left in each well. Cell plates are then transferred to the FLIPR. Experiments are initiated by measuring a baseline fluorescence reading for 10 seconds, followed by the addition of 12.5 μL of cpds and data sampling for a total 280 seconds. The experiments are terminated by addition of 12.5 μL of a reference agonist (500 nM α,β-methylene-ATP) or buffer, producing a final assay volume of 50 μL followed by data sampling for an additional 280 seconds.
(§3) In P2X3 antagonist experiments (human and rat assays) data are analysed as normalised maximal peak fluorescence monitored following agonist addition and calculated as percent of relative fluorescent counts from control agonist. The dose-response antagonist inhibition curves are analyzed in a 4-parameter sigmoidal fit using a non-linear curve-fitting program (XLfit version 5.0.6, ID Business Solutions Limited, Guildford, UK).

[3] = target: T3, hP2X3 (human Purinergic P2X receptors subtype 3), clone A (Homo sapiens, UniProt P56373); test: hP2X3 FLIPR calcium (Fluo-4) antagonist assay, clone A; conditions: Human P2X3 FLIPR Clone A Mean IC50 (nM), RLE cells expressing hP2X3 clone A (AB016608); agonist 500 nM α,β-methylene-ATP
T3 sequence (P56373 1-397): T1 sequence (P56373 1-397)
Description: as §1, §2, §3

Row | SMILES | IC50 [1] [nM] | IC50 [2] [nM] | IC50 [3] [nM]
1 | CC(=O)N1CCN(c2nc3c(c(N4CCCC4c4cnc5ccccc5c4)n2)CN(C(C)C)C3=O)CC1 (single isomer, unassigned) [Example 282, 4-(4-acetylpiperazin-1-yl)-8-propan-2-yl-2-(2-quinolin-3-ylpyrrolidin-1-yl)-3,5,8-triazabicyclo[4.3.0]nona-1,3,5-trien-7-one] | 550 | 2530 | 
2 | CCC(C)N1Cc2c(NCc3cnn(-c4ccccc4)c3)nc(N3CCN(C(C)=O)CC3)nc2C1=O (single isomer, unassigned; (+)) [Example 306, (+)-4-(4-acetylpiperazin-1-yl)-8-butan-2-yl-2-[(1-phenylpyrazol-4-yl)methylamino]-3,5,8-triazabicyclo[4.3.0]nona-1,3,5-trien-7-one] | 34 | 3970 | 
3 | CCC(C)N1Cc2c(NCc3cnc4ccccc4c3)nc(N3CCN(C(C)=O)CC3)nc2C1=O (single isomer, unassigned; (+)) [Example 308, (+)-2-(4-acetylpiperazin-1-yl)-4-(3-quinolylmethylamino)-6-sec-butyl-5H-pyrrolo[3,4-d]pyrimidin-7-one] | 20 | 10300 | 
4 | CCC(C)N1Cc2c(NCc3cnn(-c4ccccc4)c3)nc(N3CCN(C(C)=O)CC3)nc2C1=O (single isomer, unassigned; (-)) [Example 307, (−)-4-(4-acetylpiperazin-1-yl)-8-butan-2-yl-2-[(1-phenylpyrazol-4-yl)methylamino]-3,5,8-triazabicyclo[4.3.0]nona-1,3,5-trien-7-one] | 150 | 12000 | 
5 | COc1cc(OC(F)(F)F)ccc1CNc1nc(N2CCN(C(C)=O)CC2)nc2c1CN(C(C)C)C2=O [Example 232, 2-(4-acetylpiperazin-1-yl)-6-isopropyl-4-(2-methoxy-4-(trifluoromethoxy)benzylamino)-5H-pyrrolo[3,4-d]pyrimidin-7(6H)-one] |  | 7840 | 
6 | CC(=O)N1CCN(c2nc(N[C@H](C)c3ccc(C#N)cc3)c3c(n2)C(=O)N(C(C)C)C3)CC1 [Example 351, (R)-4-(1-(2-(4-acetylpiperazin-1-yl)-6-isopropyl-7-oxo-6,7-dihydro-5H-pyrrolo[3,4-d]pyrimidin-4-ylamino)ethyl)benzonitrile] | 3300 |  | 1940

Further compounds by falling IC50 [2], results first:

Row | IC50 [1] [nM] | IC50 [2] [nM] | IC50 [3] [nM] | SMILES
7 |  | 2110 |  | CC(=O)N1CCN(c2nc(NC(c3ccccc3)c3ccccc3)c3c(n2)C(=O)N(C(C)C)C3)CC1 [Example 72, 2-(4-Acetyl-piperazin-1-yl)-4-(benzhydryl-amino)-6-isopropyl-5,6-dihydro-pyrrolo[3,4-d]pyrimidin-7-one]
8 | 66 | 1910 |  | CC(=O)N1CCN(c2nc(N[C@@H](C)c3cnc4ccccc4c3)c3c(n2)C(=O)N(C(C)C)C3)CC1 (single isomer, unassigned) [Example 345]
9 | 28 | 1680 |  | CCC(C)N1Cc2c(NCc3cc4ccccc4cn3)nc(N3CCN(C(C)=O)CC3)nc2C1=O (single isomer, unassigned; (-)) [Example 311, (−)-2-(4-acetylpiperazin-1-yl)-4-(3-isoquinolylmethylamino)-6-sec-butyl-5H-pyrrolo[3,4-d]pyrimidin-7-one]
10 | 53 | 1500 |  | COc1ccc(CC2CCCN2c2nc(N3CCN(C(C)=O)CC3)nc3c2CN(C(C)C)C3=O)cc1 (single isomer, unassigned) [Example 287, 2-(4-acetylpiperazin-1-yl)-6-isopropyl-4-[2-[(4-methoxyphenyl)methyl]pyrrolidin-1-yl]-5H-pyrrolo[3,4-d]pyrimidin-7-one]
11 | 87 | 253 |  | CC(=O)N1CCN(c2nc3c(c(N4CCCC4c4cnc5ccccc5c4)n2)CN(C(C)C)C3=O)CC1 (single isomer, unassigned) [Example 283, 4-(4-acetylpiperazin-1-yl)-8-propan-2-yl-2-(2-quinolin-3-ylpyrrolidin-1-yl)-3,5,8-triazabicyclo[4.3.0]nona-1,3,5-trien-7-one]
12 | 35 | 234 |  | CC(=O)N1CCN(c2nc(N[C@H](C)c3cnc4ccccc4c3)c3c(n2)C(=O)N(C(C)C)C3)CC1 (single isomer, unassigned) [Example 344]
